Source: patent US9249102B2 (priority 2012, dated 2016)
Where two headings read alike, the source gives them in different places.

Columns and labels:
[1] = test system: anthelmintic-resistant isolate of Haemonchus contortus; assay: Method B: anthelmintic-resistant (benzimidazole-resistant) isolate of Haemonchus contortus, conditions of method A; settings: H. contortus isolate functionally resistant against benzimidazoles
Haemonchus contortus [2] = assay: Method D: Haemonchus contortus in vivo in Mongolian jirds; design: species or system Mongolian jirds (Meriones unguiculatus); settings: po, 72 h, read-out: reduction in nematode infestation
Cooperia oncophora = assay: Method C: Cooperia oncophora L1 larvae in vitro; settings: 96 h, read-out: inhibition of motility
Haemonchus contortus [3] = assay: Method A: Haemonchus contortus L1 larvae, microtitre plate screen; settings: 96 h, read-out: motility inhibition
[4] = test system: microfilaria of Dirofilaria immitis; assay: Method F: microfilaria of Dirofilaria immitis, survival at 24 hours; settings: survival of microfilaria at 24 hours
[5] = Method G: permeability in the Caco-2/TC7 in vitro model; settings: human, Caco-2, pH 6.5

Q: For `c1ccc2[nH]c(-c3cscn3)nc2c1` [thiabendazole], which “fold resistance of the isolate” value [1] is on record?
A: 127 fold

Q: Which results are given for `O=C(CO[C@H]1CC[C@H](Nc2ccc([N+](=O)[O-])c(C(F)(F)F)c2)CC1)N1CCN(c2ccc3cc(C(F)(F)F)ccc3n2)CC1` [Compound 89, 2-[(4-[[4-nitro-3-(trifluoromethyl)phenyl]amino]cyclohexyl)oxy]-1-[4-[6-(trifluoromethyl)quinolin-2-yl]piperazin-1-yl]ethan-1-one]?
A: inhibition in vivo at 30 mg/kg (Haemonchus contortus [2]): > 90%; inhibition at 5 µg/mL (Cooperia oncophora): ≥ 90%; inhibition at 5 µg/mL (Haemonchus contortus [3]): ≥ 90%; EC50 [4]: < 5 µg/mL

Q: Which results are given for `O=C(CO[C@H]1CC[C@H](Nc2ccc([N+](=O)[O-])c(C(F)(F)F)c2)CC1)N1CCN(Cc2nc3cc(C(F)(F)F)ccc3s2)CC1` [Compound 302, 2-[4-[4-nitro-3-(trifluoromethyl)anilino]cyclohexoxy]-1-[4-[[5-(trifluoromethyl)-1,3-benzothiazol-2-yl]methyl]piperazin-1-yl]ethanone]?
A: inhibition in vivo at 30 mg/kg (Haemonchus contortus [2]): > 90%; inhibition at 5 µg/mL (Cooperia oncophora): ≥ 90%; inhibition at 5 µg/mL (Haemonchus contortus [3]): ≥ 90%; EC50 [4]: < 0.1 µg/mL

Q: Which inhibition in vivo at 30 mg/kg (Haemonchus contortus [2]) does the source give for `CN(c1ccc([N+](=O)[O-])c(C(F)(F)F)c1)[C@H]1CC[C@H](OCC(=O)N2CCN(CC3Cc4cc(F)ccc4O3)CC2)CC1` (some centres unmarked) [Compound 261, 1-[4-(5-fluoro-2,3-dihydro-benzofuran-2-ylmethyl)-piperazin-1-yl]-2-{4-[methyl-(4-nitro-3-trifluoromethyl-phenyl)-amino]-cyclohexyloxy}-ethanone] here?
A: > 90%

Q: What about the inhibition at 5 µg/mL (Cooperia oncophora) of the same compound?
A: ≥ 90%

Q: And the inhibition at 5 µg/mL (Haemonchus contortus [3])?
A: ≥ 90%

Q: And the Papp A→B at 20 μM [5]?
A: 8.2 ×10⁻⁶ cm/s

Q: What about the EC50 [4] of the same compound?
A: < 0.1 µg/mL

Q: With `O=C(CO[C@H]1CC[C@H](Nc2ccc([N+](=O)[O-])c(C(F)(F)F)c2)CC1)N1CCN(Cc2nc3cc(F)ccc3s2)CC1` [Compound 235, 1-(4-((5-fluorobenzo[d]thiazol-2-yl)methyl)piperazin-1-yl)-2-(-4-(4-nitro-3-(trifluoromethyl)phenylamino)cyclohexyloxy)ethanone] as the compound, how does the inhibition in vivo at 30 mg/kg (Haemonchus contortus [2]) read?
A: 70 to 90%

Q: What about the inhibition at 5 µg/mL (Cooperia oncophora) of the same compound?
A: ≥ 90%

Q: What about the inhibition at 5 µg/mL (Haemonchus contortus [3]) of the same compound?
A: ≥ 90%

Q: And the Papp A→B at 20 μM [5]?
A: 13.8 ×10⁻⁶ cm/s

Q: And the EC50 [4]?
A: < 1 µg/mL

Q: Which results are given for `O=C(CO[C@H]1CC[C@H](Nc2ccc([N+](=O)[O-])c(C(F)(F)F)c2)CC1)N1CCN(CC2Cc3cc(F)ccc3O2)CC1` (some centres unmarked) [Compound 77]?
A: inhibition in vivo at 30 mg/kg (Haemonchus contortus [2]): > 90%; inhibition at 5 µg/mL (Cooperia oncophora): ≥ 90%; inhibition at 5 µg/mL (Haemonchus contortus [3]): ≥ 90%; EC50 [4]: < 5 µg/mL

Q: With `N#Cc1ccc(N[C@H]2CC[C@H](OCC(=O)N3CCN(c4ccc5cc(Cl)ccc5c4)CC3)CC2)cc1C(F)(F)F` [Compound 278] as the compound, how does the inhibition in vivo at 30 mg/kg (Haemonchus contortus [2]; in Meriones unguiculatus) read?
A: 70 to 90%

Q: And the inhibition at 5 µg/mL (Cooperia oncophora)?
A: ≥ 90%

Q: And the inhibition at 5 µg/mL (Haemonchus contortus [3])?
A: ≥ 90%

Q: What about the EC50 [4] of the same compound?
A: < 1 µg/mL

Q: With `N#Cc1ccc(N[C@H]2CC[C@H](OCC(=O)N3CCN(c4ccc5cc(C(F)(F)F)ccc5n4)CC3)CC2)cc1C(F)(F)F` [Compound 273, 2-[(4-[[4-cyano-3-(trifluoromethyl)phenyl]amino]cyclohexyl)oxy]-1-[4-[6-(trifluoromethyl)quinolin-2-yl]piperazin-1-yl]ethan-1-one] as the compound, how does the inhibition in vivo at 30 mg/kg (Haemonchus contortus [2]) read?
A: > 90%

Q: And the inhibition at 5 µg/mL (Cooperia oncophora)?
A: ≥ 90%

Q: What about the inhibition at 5 µg/mL (Haemonchus contortus [3]) of the same compound?
A: ≥ 90%

Q: And the EC50 [4]?
A: < 1 µg/mL

Q: Which inhibition in vivo at 30 mg/kg (Haemonchus contortus [2]) does the source give for `O=C(CO[C@H]1CC[C@H](Nc2ccc([N+](=O)[O-])c(C(F)(F)F)c2)CC1)N1CCN(Cc2cnc3cc(C(F)(F)F)ccc3c2)CC1` [Compound 327, 2-[4-(4-nitro-3-trifluoromethyl-phenylamino)-cyclohexyloxy]-1-[4-(7-trifluoromethyl-quinolin-3-ylmethyl)-piperazin-1-yl]-ethanone] here?
A: 70 to 90%

Q: What about the inhibition at 5 µg/mL (Haemonchus contortus [3]) of the same compound?
A: ≥ 90%

Q: And the Papp A→B at 20 μM [5]?
A: 6.9 ×10⁻⁶ cm/s

Q: With `O=C(CO[C@H]1CC[C@H](Nc2ccc([N+](=O)[O-])c(C(F)(F)F)c2)CC1)N1CCN(Cc2cc3cc(F)c(F)cc3o2)CC1` [Compound 325, 2-[(4-[[4-nitro-3-(trifluoromethyl)phenyl]amino]cyclohexyl)-oxy]1-[4-(5,6-difluorobenzofuran-2-ylmethyl)piperazin-1-yl]ethan-1-one] as the compound, how does the inhibition in vivo at 30 mg/kg (Haemonchus contortus [2]) read?
A: 70 to 90%

Q: And the inhibition at 5 µg/mL (Cooperia oncophora)?
A: ≥ 90%

Q: And the inhibition at 5 µg/mL (Haemonchus contortus [3])?
A: ≥ 90%

Q: What about the Papp A→B at 20 μM [5] of the same compound?
A: 9 ×10⁻⁶ cm/s
